Test results as given in US20260001915A1, “METHODS FOR TREATING OBESITY WITH AN MC4R AGONIST” (RHYTHM PHARMACEUTICALS, INC., priority 2022, published 2026).

How the values were obtained:
[1] = Phase 2 hypothalamic obesity study: daily hunger questionnaire (most hungry last 24 hrs), weekly average of daily most hunger score; format: in vivo, human; conditions: patients ≥12 years of age
Description: (§1) The secondary endpoints included determination of: • Composite proportion of patients aged ≥6 to <18 years with ≥0.2 reduction of BMI Z-score and patients aged ≥18 years with 5% reduction of body weight from baseline after 16 weeks of setmelanotide • Proportion of patients aged ≥6 to <18 years with ≥0.2 reduction of BMI Z-score from baseline after 16 weeks of setmelanotide • Proportion of patients aged 18 years with 5% reduction of body weight from baseline after 16 weeks of setmelanotide • Change from baseline in waist circumference in patients aged 18 years after 16 weeks of setmelanotide treatment. • Change in hunger in response to 16 weeks of setmelanotide treatment as measured by change from baseline in daily and global hunger scores. • Safety and tolerability assessed by the frequency and severity of AEs, vital signs, and laboratory evaluations. • Change from baseline in metabolic parameters following treatment with setmelanotide, including fasting glucose, HbA1c, lipid profiles (total-, high-density lipoprotein [HDL]-, and low-density lipoprotein [LDL]-cholesterol, triglycerides). • Proportion of patients, regardless of age, with ≥5% body weight loss from baseline after 16 weeks of setmelanotide treatment compared to a historic control of <5% in this patient population. • Change from baseline in BMI, weight, and waist circumference, regardless of age, after 16 weeks of setmelanotide treatment. • Change from baseline in BMI Z-score in patients aged 6 to 12 years and in those aged 6 to <18 years.
All screening evaluations were completed and reviewed to confirm that potential patients meet all eligibility criteria. […]
The daily hunger questionnaire as assessed in patients ≥12 years of age also achieved a clinically meaningful diminution quantifying the most hungry the patient has experienced over the last 24 hours, with a mean reduction in the hunger score of −2.66 after 16 weeks. […]

[2] = Long-term extension study of setmelanotide, hypothalamic obesity subpopulation; format: in vivo, human
Experimental: This example describes a long-term extension study of the use of setmelanotide in treating hypothalamic obesity, and further to investigate the safety and tolerability of chronic setmelanotide administration for up to 5 years from initiation of treatment.
Setmelanotide, 10 mg/mL in a sterile solution, QD. Dosing was continued at the dosage of the cessation of the previous setmelanotide trial, (e.g., 3.0 mg QD for most patients enrolled in the setmelanotide trial for treating subjects with hypothalamic obesity), unless a change is determined necessary by the Investigator, e.g., for safety, tolerability, TEAE, SAE, or other concern.
The objective of this study was to examine the long-term safety parameters of chronic, daily subcutaneous setmelanotide injections for a period of up to 5 years. In order to assess this primary endpoint, the occurrence of TEAEs and SAEs were tracked, in addition to other clinical data including any new emergence of injection site reactions, changes in resting heart rate or blood pressure, laboratory workup (e.g., fasting glucose, HbA1c, lipid profiles (total-, high-density lipoprotein [HDL]-, and low-density lipoprotein [LDL]-cholesterol, triglycerides), liver enzymes, changes in physical examination (e.g., weight, BMI, BMI Z-Score), and cardiac changes (e.g., as measured by an electrocardiogram (ECG). […]

[3] = Phase 2 open-label study of setmelanotide SC daily in patients with hypothalamic obesity: BMI, BMI Z-score, body weight after 16 weeks; format: in vivo, human; conditions: for Weight (kg), Week 16 Actual, Mean (SD): 16 weeks of treatment
Experimental: This example describes a phase 2 study that seeks to evaluate the change in body weight in response to an exemplary MC4R agonist, e.g., setmelanotide (i.e., SEQ ID NO: 140) administered subcutaneously (SC) daily in patients with hypothalamic obesity (HO).
Setmelanotide, 10 mg/mL in a sterile solution for injection, was provided at 1.0, 2.0, 3.0 mg QD for patients 6 to <16 years of age, and 2.0 to 3.0 mg QD for patients ≥16 years of age.
The primary endpoint of this study was to identify a proportion of patients with ≥5% reduction from baseline in BMI after 16 weeks of setmelanotide treatment compared to a historic control of <5% in this patient population.
as §1
This study describes a Phase 2, multicenter, open-label, proof of concept study designed to assess the effect of setmelanotide on weight loss within a population affected by HO. Approximately 15 patients aged 6 to 40 years, inclusive, were enrolled across approximately 3-5 clinical sites in the United States (US).
Patients who were determined to be eligible, based on Screening assessments, returned to the clinic for the Baseline Visit (Visit 2) and received the first setmelanotide dose. The starting setmelanotide dose was dependent on patient age; however, for all patients, the setmelanotide dose was titrated to a final dose of 3.0 mg/day (initial titration phase), as follows
• Starting at Baseline (Day 1; Visit 2) through approximately Day 14, patients received setmelanotide 1.0 mg/day. • Starting at approximately Day 15 through 28, patients received setmelanotide 2.0 mg/day.
• Starting at Baseline (Day 1; Visit 2) through approximately Day 14, patients received setmelanotide 2.0 mg/day. • Starting at approximately Day 15, patients received setmelanotide 3.0 mg/day; patients continue to receive setmelanotide 3.0 mg/day for 14 weeks.
Patients returned to the study center for Visits 3, 4, and 5 (Weeks 4, 8, and 12, respectively), with each of these visits conducted approximately 4 weeks apart. All patients returned to the study center at Week 16 (Visit 6) and received the last setmelanotide injection. Study endpoints were analyzed at Visit 6.
All patients received open-label setmelanotide in this study. Setmelanotide was provided as a preserved, multidose solution for injection to be administered SC, QD. It was formulated as a 10 mg/mL sterile, preserved, clear to slightly opalescent, colorless to slightly colored solution, practically free of visible particles. […]

[4] = Phase 2 hypothalamic obesity study: safety and tolerability (TEAEs, SAEs); format: in vivo, human
Description: as §1
All screening evaluations were completed and reviewed to confirm that potential patients meet all eligibility criteria. Exemplary evaluations included a medical history review, physical examination, comprehensive skin examination, measurement of height, weight, waist circumference, body composition assessment, pregnancy test (if applicable), daily hunger questionnaires, global hunger assessment, and evaluation of PHQ-A or PHQ-9, C—SSRS, SF-12 or SF-10, IWQOL, FSH, HbA1c, and fasting lipid panel. Adjustments were made depending upon specific circumstances and in consultation with the investigator. Immediate safety concerns were discussed immediately upon occurrence or awareness to determine if the patient should continue or discontinue study treatment.
The most commonly reported TEAE was nausea (63.6%).

[5] = clinical trials; cited from earlier work
[6] = patients with POMC and LEPR deficiency obesity; cited from earlier work

CC(=O)N[C@@H](CCCNC(=N)N)C(=O)N[C@H]1CSSC[C@@H](C(N)=O)NC(=O)[C@H](Cc2c[nH]c3ccccc23)NC(=O)[C@H](CCCNC(=N)N)NC(=O)[C@@H](Cc2ccccc2)NC(=O)[C@H](Cc2cnc[nH]2)NC(=O)[C@@H](C)NC1=O [setmelanotide, Ac-Arg-c(Cys-D-Ala-His-D-Phe-Arg-Trp-Cys)-NH2]
Weekly average of daily most hunger score, Week 16 Actual, Median ([1]; N 7): 5.67 | Weekly average of daily most hunger score, Week 16 Change from Baseline, Median ([1]; N 7): −1.71 | Weekly average of daily most hunger score (Most Hungry Last 24 hrs), Week 16 Actual, Mean (SD) ([1]; N 7 at Week 16): 4.55 (2.84) | BMI in long-term extension ([2]; 5 patients from the Phase 2 study, additional 3-8 months): all of the patients but one continued to further see reductions in BMI | BMI of the fifth patient (increase in BMI in the extension period) ([2]; relative to BMI at initiation of the Phase 2 study): did not return to his or her original BMI | Weight (kg), Week 16 Actual, Median ([3]; 6-<18 years (N = 9)): 93.07 kg | Weight (kg), Week 16 Change from Baseline, Mean (SD) ([3]; 6-<18 years (N = 9)): -17.83 kg | Weight (kg), Week 16 Change from Baseline, Median ([3]; 6-<18 years (N = 9)): -16.77 kg | Weight, Week 16 Percent Change from Baseline, Mean (SD) ([3]; 6-<18 years (N = 9)): −17.80% | Weight, Week 16 Percent Change from Baseline, Median ([3]; 6-<18 years (N = 9)): −14.12% | Weight (kg), Week 16 Actual, Mean (SD) ([3]; 6-<18 years (N = 9)): 89.98 kg | Mean BMI reduction ([3]; 9 completers at 16 weeks): −19.5% | Mean change in BMI Z score ([3]; FAS set, after 16 weeks): −1.1 point | Weight (kg), Week 16 Actual, Median ([3]; Total (N = 11)): 94.27 kg | Weight (kg), Week 16 Change from Baseline, Mean (SD) ([3]; Total (N = 11)): -15.87 kg | Weight (kg), Week 16 Change from Baseline, Median ([3]; Total (N = 11)): -13.90 kg | Weight, Week 16 Percent Change from Baseline, Mean (SD) ([3]; Total (N = 11)): −15.79% | Weight, Week 16 Percent Change from Baseline, Median ([3]; Total (N = 11)): −13.68% | Weight (kg), Week 16 Actual, Mean (SD) ([3]; Total (N = 11)): 91.22 kg | Mean percent change in body weight ([3]; after 16 weeks of setmelanotide, SD 7.9%): −17.8% | Reduction in BMI Z score ([3]; all patients less than 18 years old, 16 weeks): statistically significant reduction in BMI Z score | Proportion of patients achieving at least a 10% reduction in BMI ([3]; completers (n=9), 16 weeks, p<0.0001): 100% | Proportion of patients achieving greater than or equal to 5% reduction in BMI (primary endpoint) ([3]; full analysis set (n=11), 16 weeks, p<0.0001): 100% | Reduction in weight ([3]; pediatric and adult patients, 16 weeks of daily SC therapy): statistically significant and clinically meaningful reduction in weight | Weight (kg), Week 16 Actual, Median ([3]; ≥18 years (N = 2)): 96.78 kg | Weight (kg), Week 16 Change from Baseline, Mean (SD) ([3]; ≥18 years (N = 2)): -7.02 kg | Weight (kg), Week 16 Change from Baseline, Median ([3]; ≥18 years (N = 2)): -7.02 kg | Weight, Week 16 Percent Change from Baseline, Mean (SD) ([3]; ≥18 years (N = 2)): −6.76% | Weight, Week 16 Percent Change from Baseline, Median ([3]; ≥18 years (N = 2)): −6.76% | Weight (kg), Week 16 Actual, Mean (SD) ([3]; ≥18 years (N = 2)): 96.78 kg | Safety and tolerability of setmelanotide treatment ([4]; 16 weeks, up to 3.0 mg/day SC): consistent with established data | Incidence of nausea (most commonly reported TEAE) ([4]; eleven patients): 63.6% | Skin hyperpigmentation, e.g., melanocytic naevus, patients reporting ([4]; eleven patients): two of the eleven patients | Patients with at least one treatment emergent adverse event (TEAE) ([4]; eleven patients, related or unrelated to administration): All eleven of the patients | SAE related to Clostridium dificile colitis ([4]; one patient, able to complete the study): classified as severe, but not related to setmelanotide therapy | Effect on blood pressure [5]: has not been shown to adversely affect blood pressure | Reduction in hunger [6]: statistically significant and clinically meaningful reduction in hunger | Weight loss [6]: rapid and sustained significant and clinically meaningful weight loss
